Counter-ions that a name gives are not always drawn.

The assay has as its system recombinant guanylate cyclase reporter cell line. Description: Action on recombinant guanylate cyclase reporter cell line (MEC). It is filed as cell-based. Particulars: in some cases mean values obtained from individual determinations. The method, boiled down: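 Cell-based reporter assay with recombinant guanylate cyclase expressed in a reporter cell line, per a published method. Activity reported as minimal effective concentration (MEC), in some cases as the mean of individual determinations.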
For the compound `CCCC[C@@H](NC(=O)c1c(C)nc2c(OCc3c(F)cccc3F)cccn12)C(C)O` (stereo partly drawn) [Example 139, 8-[(2,6-Difluorobenzyl)oxy]-N-[(3R)-2-hydroxyheptan-3-yl]-2-methylimidazo[1,2-a]pyridine-3-carboxamide], the minimal effective concentration came to 0.03 µM.

Consider `Cc1nc2c(OCc3c(F)cccc3F)cccn2c1C(=O)NC(CO)c1ccc(F)cc1` (racemic) [Example 103, rac-8-[(2,6-difluorobenzyl)oxy]-N-[1-(4-fluorophenyl)-2-hydroxyethyl]-2-methylimidazo-[1,2-a]pyridine-3-carboxamide trifluoroacetate], for which the minimal effective concentration is 0.1 µM. In the case of `Cc1nc2c(OCC3CCCCC3)cccn2c1C(=O)NC(CO)COC(C)(C)C` (stereo not shown) [Example 94, N-(1-tert-butoxy-3-hydroxypropan-2-yl)-8-(cyclohexylmethoxy)-2-methylimidazo[1,2-a]-pyridine-3-carboxamide], the minimal effective concentration was 3 µM. `Cc1nc2c(OCc3c(F)cccc3F)cccn2c1C(=O)NC(CO)CCC(F)(F)F` (racemic) [Example 101, rac-8-[(2,6-difluorobenzyl)oxy]-2-methyl-N-(5,5,5-trifluoro-1-hydroxypentan-2-yl)-imidazo[1,2-a]pyridine-3-carboxamide trifluoroacetate]: the minimal effective concentration was determined as 0.1 µM.

With `Cc1nc2c(OCc3c(F)cccc3F)cccn2c1C(=O)NC(CCCC(F)(F)F)C(C)(C)O` (racemic) [Example 150, rac-8-[(2,6-difluorobenzyl)oxy]-2-methyl-N-(7,7,7-trifluoro-2-hydroxy-2-methylheptan-3-yl)imidazo[1,2-a]pyridine-3-carboxamide], the minimal effective concentration was determined as 0.03 µM. As for `Cc1nc2c(OCc3c(F)cccc3F)cccn2c1C(=O)N[C@@H](CO)Cc1ccccc1` [Example 38, 8-[(2,6-difluorobenzyl)oxy]-N-[(2R)-1-hydroxy-3-phenylpropan-2-yl]-2-methylimidazo[1,2-a]-pyridine-3-carboxamide], the minimal effective concentration is 0.3 µM. Regarding `Cc1nc2c(OCC3CCCCC3)cccn2c1C(=O)NCCCO` [Example 82, 8-(cyclohexylmethoxy)-N-(3-hydroxypropyl)-2-methylimidazo[1,2-a]pyridine-3-carboxamide], the minimal effective concentration was 0.3 µM.

As to `Cc1nc2c(OCc3c(F)cccc3F)cccn2c1C(=O)NC[C@@H](O)c1ccccc1` [Example 32, 8-[(2,6-difluorobenzyl)oxy]-N-[(2S)-2-hydroxy-2-phenylethyl]-2-methylimidazo[1,2-a]pyridine-3-carboxamide], the minimal effective concentration came out at 1 µM.

For the compound `Cc1nc2c(OCc3c(F)cccc3F)cccn2c1C(=O)NC1(CO)CCC1` [Example 125, 8-[(2,6-Difluorobenzyl)oxy]-N-[1-(hydroxymethyl)cyclobutyl]-2-methylimidazo[1,2-a]pyridine-3-carboxamide], the minimal effective concentration is 0.3 µM.

As to `Cc1nc2c(OCc3c(F)cccc3F)cccn2c1C(=O)NC(C)C(O)C(F)(F)F` (single isomer, unassigned) [Example 146, 8-[(2,6-Difluorobenzyl)oxy]-2-methyl-N-(4,4,4-trifluoro-3-hydroxybutan-2-yl)imidazo[1,2-a]-pyridine-3-carboxamide], the minimal effective concentration was 1.0 µM. Regarding `CCCC[C@H](CO)NC(=O)c1c(C)nc2c(OCc3c(F)cccc3F)c(F)ccn12` [Example 177, 8-[(2,6-Difluorobenzyl)oxy]-7-fluoro-N-[(2R)-1-hydroxyhexan-2-yl]-2-methylimidazo[1,2-a]-pyridine-3-carboxamide], the minimal effective concentration came to 1 µM.

As for `Cc1nc2c(OCC3CCCCC3)cccn2c1C(=O)NC[C@H](O)CO` [Example 68, 8-(cyclohexylmethoxy)-N-[(2S)-2,3-dihydroxypropyl]-2-methylimidazo[1,2-a]pyridine-3-carboxamide], the minimal effective concentration was found to be 0.03 µM.

Turning to `CC[C@H](C)[C@@H](CO)NC(=O)c1c(C)nc2c(OCC3CCCCC3)cccn12` [Example 91, 8-(cyclohexylmethoxy)-N-[(2S,3S)-1-hydroxy-3-methylpentan-2-yl]-2-methylimidazo[1,2-a]pyridine-3-carboxamide], the minimal effective concentration stood at 1 µM. `Cc1nc2c(OCc3c(F)cccc3F)cccn2c1C(=O)NC(CO)CC(F)(F)F` (single isomer, unassigned; ent-8) [Example 121, ent-8-[(2,6-Difluorobenzyl)oxy]-2-methyl-N-(4,4,4-trifluoro-1-hydroxybutan-2-yl)imidazo[1,2-a]-pyridine-3-carboxamide]: the minimal effective concentration was 0.03 µM. As to `Cc1nc2c(OCc3c(F)cccc3F)cccn2c1C(=O)N[C@H](C)CO` [Example 118, 8-[(2,6-difluorobenzyl)oxy]-N-[(2R)-1-hydroxypropan-2-yl]-2-methylimidazo[1,2-a]-pyridine-3-carboxamide], the minimal effective concentration worked out at 0.3 µM. As for `Cc1nc2c(OCc3c(F)cccc3F)cccn2c1C(=O)NC(CO)CCCC(F)(F)F` (single isomer, unassigned; ent-8) [Example 123, ent-8-[(2,6-Difluorobenzyl)oxy]-2-methyl-N-(6,6,6-trifluoro-1-hydroxyhexan-2-yl)imidazo[1,2-a]-pyridine-3-carboxamide], the minimal effective concentration was 0.03 µM. Regarding `Cc1nc2c(OCC3CCCCC3)cccn2c1C(=O)NCCOCCO` [Example 86, 8-(cyclohexylmethoxy)-N-[2-(2-hydroxyethoxy)ethyl]-2-methylimidazo[1,2-a]-pyridine-3-carboxamide], the minimal effective concentration stood at 0.65 µM.

As to `CC[C@H](CO)NC(=O)c1c(C)nc2c(OCc3ccccc3)cccn12` [Example 17, 8-(Benzyloxy)-N-[(2R)-1-hydroxybutan-2-yl]-2-methylimidazo[1,2-a]pyridine-3-carboxamide], the minimal effective concentration was found to be 3 µM. For the compound `Cc1nc2c(OCC3CCCCC3)cccn2c1C(=O)N[C@@H]1CCCC[C@H]1O` (racemic) [Example 78, (rac)-8-(cyclohexylmethoxy)-N-[(trans)-2-hydroxycyclohexyl]-2-methylimidazo[1,2-a]-pyridine-3-carboxamide], the minimal effective concentration stood at 0.3 µM.

For the compound `CCCC[C@H](CO)NC(=O)c1c(C)nc2c(OCc3ccccc3Cl)cccn12` [Example 4, 8-[(2-chlorobenzyl)oxy]-N-[(2R)-1-hydroxyhexan-2-yl]-2-methylimidazo[1,2-a]pyridine-3-carboxamide], the minimal effective concentration was found to be 0.1 µM. In the case of `Cc1nc2c(OCC3CCCCC3)cccn2c1C(=O)NC1CCCC1O` (stereo not shown) [Example 83, 8-(cyclohexylmethoxy)-N-(2-hydroxycyclopentyl)-2-methylimidazo[1,2-a]pyridine-3-carboxamide], the minimal effective concentration amounted to 0.3 µM. Take `[2H]C([2H])(Oc1cccn2c(C(=O)N[C@@H](CO)CCCC)c(C)nc12)c1c(F)cccc1F` [Example 115, 8-{[(2,6-difluorophenyl)(^2H2)methyl]oxy}-N-[(2R)-1-hydroxyhexan-2-yl]-2-methylimidazo[1,2-a]pyridine-3-carboxamide]: the minimal effective concentration was found to be 0.01 µM. Turning to `Cc1nc2c(OCC3CCC3)cccn2c1C(=O)NCCC1(O)CCCCC1` [Example 99, 8-(cyclobutylmethoxy)-N-[2-(1-hydroxycyclohexyl)ethyl]-2-methylimidazo[1,2-a]pyridine-3-carboxamide], the minimal effective concentration turned out to be 3 µM. For `C#Cc1cc(OCc2c(F)cccc2F)c2nc(C)c(C(=O)N[C@@H](CO)CCCC)n2c1` [Example 126, 8-[(2,6-Difluorobenzyl)oxy]-6-ethynyl-N-[(2R)-1-hydroxyhexan-2-yl]-2-methylimidazo[1,2-a]-pyridine-3-carboxamide], the minimal effective concentration stood at 0.1 µM. Turning to `CCC(CO)NC(=O)c1c(C)nc2c(OCC3CCCCC3)cccn12` (racemic) [Example 69, (rac)-8-(cyclohexylmethoxy)-N-(1-hydroxybutan-2-yl)-2-methylimidazo[1,2-a]pyridine-3-carboxamide formate], the minimal effective concentration was determined as 0.1 µM. Consider `Cc1cc(OCC2CC(F)(F)C2)c2nc(C)c(C(=O)NC(CCCC(F)(F)F)C(C)(C)O)n2c1` (racemic) [Example 176, rac-8-[(3,3-Difluorocyclobutyl)methoxy]-2,6-dimethyl-N-(7,7,7-trifluoro-2-hydroxy-2-methylheptan-3-yl)imidazo[1,2-a]pyridine-3-carboxamide], for which the minimal effective concentration worked out at 3 µM.

Regarding `CSCC[C@H](CO)NC(=O)c1c(C)nc2c(OCc3c(F)cccc3F)cccn12` [Example 25, 8-[(2,6-difluorobenzyl)oxy]-N-[(2R)-1-hydroxy-4-(methylsulphanyl)butan-2-yl]-2-methyl-imidazo[1,2-a]pyridine-3-carboxamide], the minimal effective concentration worked out at 0.1 µM. Next, `Cc1cc(OCCC(C(F)(F)F)C(F)(F)F)c2nc(C)c(C(=O)NC3c4ccccc4CC3O)n2c1` (stereo not shown) [Example 172, N-(2-Hydroxy-2,3-dihydro-1H-inden-1-yl)-2,6-dimethyl-8-[4,4,4-trifluoro-3-(trifluoromethyl)-butoxy]imidazo[1,2-a]pyridine-3-carboxamide]: 1 µM.

On to `Cc1nc2c(OCC3CCCCC3)cccn2c1C(=O)NC(C)CO` (stereo not shown) [Example 84, 8-(cyclohexylmethoxy)-N-(1-hydroxypropan-2-yl)-2-methylimidazo[1,2-a]pyridine-3-carboxamide], for which the minimal effective concentration worked out at 0.3 µM. Regarding `Cc1nc2c(OCc3c(F)cccc3F)cccn2c1C(=O)NC(C)(C)[C@H](C)O` [Example 20, 8-[(2,6-difluorobenzyl)oxy]-N-[(3S)-3-hydroxy-2-methylbutan-2-yl]-2-methylimidazo[1,2-a]-pyridine-3-carboxamide], the minimal effective concentration turned out to be 1 µM. With `Cc1nc2c(OCc3c(F)cccc3F)cccn2c1C(=O)NC(CO)CCCC(F)(F)F` (racemic) [Example 114, rac-8-[(2,6-difluorobenzyl)oxy]-2-methyl-N(6,6,6-trifluoro-1-hydroxyhexan-2-yl)imidazo[1,2-a]pyridine-3-carboxamide], the minimal effective concentration was 0.03 µM.

In general, minimal effective concentration refers to the lowest level tested that produced the effect sought.

The record behind these values is patent publication US8778964B2, “Hydroxy-substituted imidazo[1,2-a]-pyridinecarboxamides and their use” (Bayer Pharma Aktiengesellschaft, priority 2012, dated 2014).
